Test results from the supplement of paper PMC10307832.

Columns and labels:
Test in all cases: relative viability (nuclei count vs DMSO), 5 days (fraction); higher = more cells survive
[1] = compound: O=C(O)c1ccc2c(c1)nc(Nc1cccc(Cl)c1)c1ccncc12 [Silmitasertib] + C[C@]1(O)C[C@@H](c2nc(-c3ccc4ccc(-c5ccccc5)nc4c3)c3c(N)nccn32)C1 [Linsitinib] (partner 1 µM)
In short: (§1)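 Each reported value is a median over duplicate plates. It expresses relative viability: treated-well nuclei count divided by vehicle-well nuclei count. Lung cancer cell lines in 1536-well plates were dosed by pin tool a day after seeding, alone with one drug or with a fixed anchor-drug dose plus five library-drug doses (not always all listed) in √10 steps, and nuclei were counted after 5 days.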

[2] = compound: O=C(O)c1ccc2c(c1)nc(Nc1cccc(Cl)c1)c1ccncc12 [Silmitasertib] + N=C(N)NC(=N)NCCc1ccccc1 [Phenformin] (partner 250 µM)
In short: as §1

[3] = compound: O=C(O)c1ccc2c(c1)nc(Nc1cccc(Cl)c1)c1ccncc12 [Silmitasertib] + CCNC(=O)c1noc(-c2cc(C(C)C)c(O)cc2O)c1-c1ccc(CN2CCOCC2)cc1 [Luminespib] (partner 0.01 µM)
In short: as §1

[4] = compound: O=C(O)c1ccc2c(c1)nc(Nc1cccc(Cl)c1)c1ccncc12 [Silmitasertib] + C[C@@H](Oc1cc(-c2cnn(C3CCNCC3)c2)cnc1N)c1c(Cl)ccc(F)c1Cl [Crizotinib] (partner 1 µM)
In short: as §1

[5] = compound: O=C(O)c1ccc2c(c1)nc(Nc1cccc(Cl)c1)c1ccncc12 [Silmitasertib] + CS(=O)(=O)N1CCN(Cc2cc3nc(-c4cccc5[nH]ncc45)nc(N4CCOCC4)c3s2)CC1 [Pictilisib] (partner 1 µM)
In short: as §1

| Cell Line | relative viability ([1]; first compound 0.04 µM) | relative viability ([1]; first compound 0.4 µM) | relative viability ([1]; first compound 1.265 µM) | relative viability ([1]; first compound 4 µM) | relative viability ([2]; first compound 0.04 µM) | relative viability ([2]; first compound 0.4 µM) | relative viability ([2]; first compound 1.265 µM) | relative viability ([2]; first compound 4 µM) | relative viability ([3]; first compound 0.04 µM) | relative viability ([3]; first compound 0.4 µM) | relative viability ([3]; first compound 1.265 µM) | relative viability ([3]; first compound 4 µM) | relative viability ([4]; first compound 0.04 µM) | relative viability ([4]; first compound 0.4 µM) | relative viability ([4]; first compound 1.265 µM) | relative viability ([4]; first compound 4 µM) | relative viability ([5]; first compound 0.04 µM) | relative viability ([5]; first compound 0.4 µM) | relative viability ([5]; first compound 1.265 µM) | relative viability ([5]; first compound 4 µM) |
| --- | --- | --- | --- | --- | --- | --- | --- | --- | --- | --- | --- | --- | --- | --- | --- | --- | --- | --- | --- | --- |
| 201T | 1.03 | 1.02 | 0.889 | 1.01 | 0.421 | 0.426 | 0.469 | 0.449 | 1.03 | 1.03 | 1.12 | 1.28 | 0.999 | 0.991 | 1.07 | 1.18 | 0.739 | 0.665 | 0.68 | 0.694 |
| NCI-H1915 | 1.13 |  | 1.18 | 0.956 | 0.362 |  | 0.37 | 0.249 | 0.83 |  | 0.77 | 0.669 | 0.888 |  | 0.931 | 0.718 | 1.02 |  | 0.956 | 0.408 |
| BEN | 1.03 | 0.892 | 1.01 | 0.882 | 0.275 |  | 0.281 | 0.258 | 0.484 |  | 0.623 | 0.284 | 0.974 | 0.827 | 0.739 | 0.846 | 0.628 | 0.524 | 0.493 | 0.476 |
| NCI-H2347 | 1.01 | 0.952 | 0.967 | 0.848 | 1.22 |  | 0.452 | 0.301 | 0.28 |  | 0.48 | 0.236 | 0.792 | 0.683 | 0.725 | 0.567 | 0.739 | 0.829 | 0.665 | 0.82 |
| H3255 | 1.09 | 0.944 | 0.903 | 0.991 | 0.355 | 0.353 | 0.31 | 0.359 | 0.893 | 0.849 | 1.02 | 0.504 | 0.888 | 0.701 | 0.883 | 0.864 | 0.537 | 0.448 | 0.414 | 0.345 |
| NCI-H441 | 0.455 |  | 0.389 | 0.35 | 0.692 |  | 0.739 | 0.335 | 0.369 |  | 0.329 | 0.242 | 0.814 |  | 0.787 | 0.6 | 0.469 |  | 0.285 | 0.315 |
| NCI-H2228 | 0.787 | 0.548 | 0.786 | 0.628 | 0.409 |  | 0.258 | 0.371 | 0.178 |  | 0.145 | 0.135 | 0.497 | 0.495 | 0.449 | 0.374 | 0.505 | 0.312 | 0.367 | 0.305 |
| NCI-H1975 | 1.07 | 0.842 | 0.878 | 0.686 | 0.443 |  | 0.382 | 0.394 | 0.199 |  | 0.184 | 0.136 | 0.954 | 0.795 | 0.929 | 0.816 | 0.313 | 0.25 | 0.207 | 0.208 |
| NCI-H647 | 1.37 | 1.24 | 1.05 | 0.663 | 0.513 | 0.303 | 0.477 | 0.189 | 0.159 | 0.268 | 0.241 | 0.133 | 1.26 | 1.1 | 0.932 | 0.48 | 0.546 | 0.462 | 0.33 | 0.153 |
| A-427 | 1.11 |  | 1.28 | 1.04 | 0.365 |  | 0.297 | 0.156 | 1.04 |  | 1.06 | 0.656 | 0.888 |  | 0.805 | 0.63 | 0.858 |  | 0.521 | 0.238 |
| LXF-289 | 0.91 |  | 1.08 | 1.06 | 0.53 |  | 0.58 | 0.382 | 0.592 |  | 0.652 | 0.647 | 0.794 |  | 0.842 | 0.825 | 0.808 |  | 0.772 | 0.79 |
| NCI-H727 | 0.327 | 0.287 | 0.303 | 0.166 | 0.692 | 0.488 | 0.511 | 0.348 | 0.332 | 0.274 | 0.404 | 0.358 | 0.868 | 0.65 | 0.753 | 0.485 | 0.608 | 0.392 | 0.381 | 0.32 |
| NCI-H1437 | 1.03 |  | 0.691 | 0.36 | 0.327 | 0.334 | 0.305 | 0.278 | 1.17 | 1.04 | 1.03 | 0.823 | 0.916 |  | 0.865 | 0.778 | 0.42 |  | 0.261 | 0.217 |
| RERF-LC-KJ | 0.858 | 0.876 | 0.689 | 0.672 | 0.407 | 0.378 | 0.31 | 0.268 | 1.24 | 1.19 | 1.08 | 0.633 | 0.77 | 0.817 | 0.736 | 0.711 | 0.629 | 0.494 | 0.366 | 0.323 |
| NCI-H1792 | 0.531 | 0.439 | 0.48 | 0.539 | 0.29 | 0.24 | 0.327 | 0.103 | 0.452 | 0.385 | 0.57 | 0.375 | 0.948 | 0.764 | 0.735 | 0.882 | 0.28 | 0.294 | 0.283 | 0.286 |
| HCC-44 | 0.7 | 0.673 | 0.665 | 0.691 | 0.267 | 0.234 | 0.117 | 0.12 | 1.14 | 1.07 | 1.05 | 1.09 | 0.729 | 0.697 | 0.839 | 0.771 | 0.579 | 0.452 | 0.549 | 0.351 |
| EPLC-272H | 1.31 |  | 0.84 | 0.862 | 0.399 |  | 0.23 | 0.088 | 1.05 |  | 0.18 | 0.181 | 0.992 |  | 0.469 | 0.407 | 0.424 |  | 0.268 | 0.169 |
